These compounds were tested on IL-1β release in U937 cells after NLRP3 activation (assay: IL-1β release inhibition in U937 cells (MSD V-Plex)). Conditions: Homo sapiens, U-937, read-out: IL-1β IC50, Table 3; PMA-differentiated U937 cells, 1 μg/mL LPS 3 h, compound 30 min, 10 mM nigericin 1 h.
Method: Differentiating media was prepared by adding 20 nM phorbol 12-myristate 13-acetate (PMA) (AdipoGen AG-CN2-0010-M005) to growth medium. A cell suspension was prepared with differentiating media at 500K cells/mL. […] Plates were placed in an incubator for 90 hours. […] Differentiating media was removed and priming media was added to each well. The plates were placed in the incubator for three (3) hours. 20 mM compound DMSO stock solutions were prepared and were further diluted to 0.4 mM; This solution was serially diluted 6 times in a 1:5 ratio. A solvent control was included.
After three (3) hours of priming, all the media was removed. Next, assay media with compounds was added in duplicate columns. The plate was placed in an incubator for 30 min. Media with a final concentration of 10 mM nigericin was then added for one (1) hour. The supernatant was collected and frozen immediately at −80° C. The plate was transferred to −20° C. the next day and for later determination of cytokine IL-1ß levels.
The release of IL-1ß into the cell media was determined with the MSD® Multi-Spot Assay System (V-Plex, IL-1ß kit, K151KPD). Following the manufacturer's protocol (Alternate Protocol 3, Dilute-In-Plate), the level of IL-1ß in the above collected supernatant plate was measured using electro-chemiluminescent signals. Using MSD DISCOVERY WORKBENCH® analysis software, the signals were converted to the concentration of IL-1ß in each well. The IC50 values of the compounds were calculated using fitted non-linear regression curve in Graph Pad Prism software. The detection range of IL-1ß using MSD kit was approximately 0.15 to 600 μg/mL (based on various lots of standards purchased from MSD).

**Q.** `Cc1c(N[C@@H]2CCCN(C[C@H]3C[C@@H](O)C3)C2)nnc(-c2ccc3sccc3c2O)c1C` [Example 73, 5-(6-(((R)-1-(((1s,3S)-3-Hydroxycyclobutyl)methyl)piperidin-3-yl)amino)-4,5-dimethylpyridazin-3-yl)benzo[b]thiophen-4-ol] was tested. Which IC50 did it give?
**A.** < 5 nM

**Q.** With `Cc1c(N[C@@H]2CCCN(CC3CC(O)C3)C2)nnc(-c2ccc3sccc3c2O)c1C` (stereo partly drawn) [Example 74, 5-(6-(((R)-1-(((1r,3R)-3-Hydroxycyclobutyl)methyl)piperidin-3-yl)amino)-4,5-dimethylpyridazin-3-yl)benzo[b]thiophen-4-ol] as the compound, how does the IC50 read?
**A.** < 5 nM

**Q.** Which IC50 does the source give for `Cc1c(N[C@@H]2CCCN(CCOC(=O)N3CCC(O)CC3)C2)nnc(-c2ccc(C(F)(F)F)cc2O)c1C` [Example 75, (R)-2-(3-((6-(2-Hydroxy-4-(trifluoromethyl)phenyl)-4,5-dimethylpyridazin-3-yl)amino)piperidin-1-yl)ethyl 4-hydroxypiperidine-1-carboxylate] here?
**A.** < 5 nM

Same assay, conditions: Homo sapiens, U-937, read-out: IL-1β IC50, Table 4; PMA-differentiated U937 cells, 1 μg/mL LPS 3 h, compound 30 min, 10 mM nigericin 1 h

**Q.** How did the IC50 turn out when `Cc1cc(N[C@@H]2CCCN(CC(=O)N3CC(N)C3)C2)nnc1-c1ccc(C(F)(F)F)cc1O` [Example 77, (R)-1-(3-Aminoazetidin-1-yl)-2-(3-((6-(2-hydroxy-4-(trifluoromethyl)phenyl)-5-methylpyridazin-3-yl)amino)piperidin-1-yl)ethan-1-one] was run?
**A.** 5 to 50 nM

**Q.** How did the IC50 turn out when `Cc1cc(N[C@@H]2CCCN(CCN)C2)nnc1-c1ccc(C(F)(F)F)cc1O` [Example 78, (R)-2-(6-((1-(2-Aminoethyl)piperidin-3-yl)amino)-4-methylpyridazin-3-yl)-5-(trifluoromethyl)phenol] was run?
**A.** < 5 nM

**Q.** `Cc1cc(N[C@@H]2CCCN(CC(=O)N(C)CCN)C2)nnc1-c1ccc(C(F)(F)F)cc1O` [Example 79, (R)—N-(2-Aminoethyl)-2-(3-((6-(2-hydroxy-4-(trifluoromethyl)phenyl)-5-methylpyridazin-3-yl)amino)piperidin-1-yl)-N-methylacetamide] was tested. Which IC50 did it give?
**A.** 50 to 500 nM

**Q.** For `Oc1cc(C(F)(F)F)ccc1-c1nnc(N[C@@H]2CCCN(C3CNC3)C2)c2c1CCC2` [Example 80, (R)-2-(4-((1-(Azetidin-3-yl)piperidin-3-yl)amino)-6,7-dihydro-5H-cyclopenta[d]pyridazin-1-yl)-5-(trifluoromethyl)phenol], which IC50 is on record?
**A.** 5 to 50 nM

**Q.** With `Oc1cc(F)ccc1-c1nnc(N[C@@H]2CCCN(C3CNC3)C2)c2c1CCC2` [Example 81, (R)-2-(4-((1-(Azetidin-3-yl)piperidin-3-yl)amino)-6,7-dihydro-5H-cyclopenta[d]pyridazin-1-yl)-5-fluorophenol] as the compound, how does the IC50 read?
**A.** 50 to 500 nM

**Q.** With `Cc1cc(N[C@@H]2CCCN(CC(=O)N3CCC4(CC3)CC(N)C4)C2)nnc1-c1ccc(C(F)(F)F)cc1O` [Example 82] as the compound, how does the IC50 read?
**A.** 5 to 50 nM

**Q.** With `Cc1cc(N[C@@H]2CCCN(CC(=O)N3CCC(N)CC3)C2)nnc1-c1ccc(C(F)(F)F)cc1O` [Example 83, (R)-1-(4-Aminopiperidin-1-yl)-2-(3-((6-(2-hydroxy-4-(trifluoromethyl)phenyl)-5-methylpyridazin-3-yl)amino)piperidin-1-yl)ethan-1-one] as the compound, how does the IC50 read?
**A.** 50 to 500 nM

**Q.** How did the IC50 turn out when `Cc1cc(N[C@@H]2CCCN(C3CNC3)C2)nnc1-c1ccc(C(F)(F)F)cc1O` [Example 84, (R)-2-(6-((1-(Azetidin-3-yl)piperidin-3-yl)amino)-4-methylpyridazin-3-yl)-5-(trifluoromethyl)phenol] was run?
**A.** 5 to 50 nM

**Q.** `Cc1cc(N[C@@H]2CCCN(C3CCNCC3)C2)nnc1-c1ccc(C(F)(F)F)cc1O` [Example 85, (R)-2-(6-([1,4′-Bipiperidin]-3-ylamino)-4-methylpyridazin-3-yl)-5-(trifluoromethyl)phenol] was tested. Which IC50 did it give?
**A.** 5 to 50 nM

**Q.** `Cc1cc(N[C@@H]2CCCN(C3CCN(C(=O)N4CCNCC4)CC3)C2)nnc1-c1ccc(C(F)(F)F)cc1O` [Example 86, (R)-(3-((6-(2-hydroxy-4-(trifluoromethyl)phenyl)-5-methylpyridazin-3-yl)amino)-[1,4′-bipiperidin]-1′-yl) (piperazin-1-yl)methanone] was tested. Which IC50 did it give?
**A.** 5 to 50 nM

**Q.** `Cc1cc(N[C@@H]2CCCN(C3CCN(C(=O)N4CCC(N)CC4)CC3)C2)nnc1-c1ccc(C(F)(F)F)cc1O` [Example 87, (R)-(4-Aminopiperidin-1-yl) (3-((6-(2-hydroxy-4-(trifluoromethyl)phenyl)-5-methylpyridazin-3-yl)amino)-[1,4′-bipiperidin]-1′-yl)methanone] was tested. Which IC50 did it give?
**A.** 50 to 500 nM

**Q.** How did the IC50 turn out when `Cc1cc(C(F)(F)F)cc(O)c1-c1ccc(N[C@@H]2CCCN(C3CNC3)C2)nn1` [Example 88, (R)-2-(6-((1-(Azetidin-3-yl)piperidin-3-yl)amino)pyridazin-3-yl)-3-methyl-5-(trifluoromethyl)phenol] was run?
**A.** 5 to 50 nM

**Q.** With `Cc1cc(N[C@@H]2CCCN(C3CC(N)C3)C2)nnc1-c1ccc(C(F)(F)F)cc1O` (stereo partly drawn) [Example 89, (R)-2-(6-((1-(3-Aminocyclobutyl)piperidin-3-yl)amino)-4-methylpyridazin-3-yl)-5-(trifluoromethyl)phenol] as the compound, how does the IC50 read?
**A.** 5 to 50 nM

**Q.** For `Cc1cc(N[C@@H]2CCCN(C(=O)CN)C2)nnc1-c1ccc(C(F)(F)F)cc1O` [Example 92, (R)-2-Amino-1-(3-((6-(2-hydroxy-4-(trifluoromethyl)phenyl)-5-methylpyridazin-3-yl)amino)piperidin-1-yl)ethan-1-one], which IC50 is on record?
**A.** 5 to 50 nM

**Q.** `Cc1cc(N[C@@H]2CCCN(CC(=O)N3CCC4(CCNCC4)CC3)C2)nnc1-c1ccc(C(F)(F)F)cc1O` [Example 93, (R)-2-(3-((6-(2-Hydroxy-4-(trifluoromethyl)phenyl)-5-methylpyridazin-3-yl)amino)piperidin-1-yl)-1-(3,9-diazaspiro[5.5]undecan-3-yl)ethan-1-one] was tested. Which IC50 did it give?
**A.** 50 to 500 nM

**Q.** With `Cc1cc(N[C@@H]2CCCN(CC(=O)NC3CNC3)C2)nnc1-c1ccc(C(F)(F)F)cc1O` [Example 94, (R)—N-(Azetidin-3-yl)-2-(3-((6-(2-hydroxy-4-(trifluoromethyl)phenyl)-5-methylpyridazin-3-yl)amino)piperidin-1-yl)acetamide] as the compound, how does the IC50 read?
**A.** > 500 nM

**Q.** For `Cc1cc(N[C@@H]2CCCN(CC(=O)NC3CCNCC3)C2)nnc1-c1ccc(C(F)(F)F)cc1O` [Example 95, (R)-2-(3-((6-(2-Hydroxy-4-(trifluoromethyl)phenyl)-5-methylpyridazin-3-yl)amino)piperidin-1-yl)-N-(piperidin-4-yl)acetamide], which IC50 is on record?
**A.** 50 to 500 nM

**Q.** For `Cc1cc(N[C@@H]2CCCN(C(=O)C(F)(F)CN)C2)nnc1-c1ccc(C(F)(F)F)cc1O` [Example 96, (R)-3-Amino-2,2-difluoro-1-(3-((6-(2-hydroxy-4-(trifluoromethyl)phenyl)-5-methylpyridazin-3-yl)amino)piperidin-1-yl) propan-1-one], which IC50 is on record?
**A.** 5 to 50 nM

**Q.** For `Cc1cc(N[C@@H]2CCCN(CC(F)(F)CN)C2)nnc1-c1ccc(C(F)(F)F)cc1O` [Example 97, (R)-2-(6-((1-(3-Amino-2,2-difluoropropyl)piperidin-3-yl)amino)-4-methylpyridazin-3-yl)-5-(trifluoromethyl)phenol], which IC50 is on record?
**A.** 5 to 50 nM

**Q.** With `Cc1cc(N[C@@H]2CCCN(C3CCN(CCN)CC3)C2)nnc1-c1ccc(C(F)(F)F)cc1O` [Example 98, (R)-2-(6-((1′-(2-Aminoethyl)-[1,4′-bipiperidin]-3-yl)amino)-4-methylpyridazin-3-yl)-5-(trifluoromethyl)phenol] as the compound, how does the IC50 read?
**A.** 50 to 500 nM

**Q.** Which IC50 does the source give for `Oc1cc(C(F)(F)F)ccc1-c1nnc(N[C@@H]2CCCN(C3CNC3)C2)c2c1COC2` [Example 99, (R)-2-(4-((1-(Azetidin-3-yl)piperidin-3-yl)amino)-5,7-dihydrofuro[3,4-d]pyridazin-1-yl)-5-(trifluoromethyl)phenol] here?
**A.** < 5 nM

**Q.** How did the IC50 turn out when `Oc1cc(C(F)(F)F)ccc1-c1nnc(N[C@@H]2CCCN(C3CCNCC3)C2)c2c1COC2` [Example 100, (R)-2-(4-([1,4′-Bipiperidin]-3-ylamino)-5,7-dihydrofuro[3,4-d]pyridazin-1-yl)-5-(trifluoromethyl)phenol] was run?
**A.** 5 to 50 nM

**Q.** For `NC1CC2(CCN(C(=O)CN3CCC[C@@H](Nc4nnc(-c5ccc(C(F)(F)F)cc5O)c5c4COC5)C3)CC2)C1` [Example 101, (R)-1-(2-Amino-7-azaspiro[3.5]nonan-7-yl)-2-(3-((4-(2-hydroxy-4-(trifluoromethyl)phenyl)-5,7-dihydrofuro[3,4-d]pyridazin-1-yl)amino)piperidin-1-yl)ethan-1-one], which IC50 is on record?
**A.** 5 to 50 nM

**Q.** Which IC50 does the source give for `Cc1cc(N[C@@H]2CCCN(CC(=O)N3CCC4(CC3)CNC4)C2)nnc1-c1ccc(C(F)(F)F)cc1O` [Example 102, (R)-2-(3-((6-(2-Hydroxy-4-(trifluoromethyl)phenyl)-5-methylpyridazin-3-yl)amino)piperidin-1-yl)-1-(2,7-diazaspiro[3.5]nonan-7-yl)ethan-1-one] here?
**A.** 50 to 500 nM

**Q.** `Cc1cc(N[C@@H]2CCCN(CC(=O)N3CCNCC3)C2)nnc1-c1ccc(C(F)(F)F)cc1O` [Example 103, (R)-2-(3-((6-(2-Hydroxy-4-(trifluoromethyl)phenyl)-5-methylpyridazin-3-yl)amino)piperidin-1-yl)-1-(piperazin-1-yl)ethan-1-one] was tested. Which IC50 did it give?
**A.** 5 to 50 nM

**Q.** For `Cc1cc(N[C@@H]2CCCN(CCN3CCNCC3)C2)nnc1-c1ccc(C(F)(F)F)cc1O` [Example 104, (R)-2-(4-Methyl-6-((1-(2-(piperazin-1-yl)ethyl)piperidin-3-yl)amino)pyridazin-3-yl)-5-(trifluoromethyl)phenol], which IC50 is on record?
**A.** 5 to 50 nM

**Q.** How did the IC50 turn out when `Cc1cc(N[C@@H]2CCCN(C[C@@H]3CCCN3)C2)nnc1-c1ccc(C(F)(F)F)cc1O` [Example 106, 2-(4-Methyl-6-(((R)-1-(((S)-pyrrolidin-2-yl)methyl)piperidin-3-yl)amino)pyridazin-3-yl)-5-(trifluoromethyl)phenol] was run?
**A.** 5 to 50 nM

**Q.** Which IC50 does the source give for `Cc1cc(N[C@@H]2CCCN(C[C@H]3CCCN3)C2)nnc1-c1ccc(C(F)(F)F)cc1O` [Example 107, 2-(4-Methyl-6-(((R)-1-(((R)-pyrrolidin-2-yl)methyl)piperidin-3-yl)amino)pyridazin-3-yl)-5-(trifluoromethyl)phenol] here?
**A.** 5 to 50 nM

**Q.** `Cc1cc(N[C@@H]2CCCN(CCNCC3COC3)C2)nnc1-c1ccc(C(F)(F)F)cc1O` [Example 108, (R)-2-(4-Methyl-6-((1-(2-((oxetan-3-ylmethyl)amino)ethyl)piperidin-3-yl)amino)pyridazin-3-yl)-5-(trifluoromethyl)phenol] was tested. Which IC50 did it give?
**A.** 5 to 50 nM

From patent US20260217677A1, “ORGANIC COMPOUNDS AS NLRP3 INHIBITORS” (KODIAK SCIENCES, INC., priority 2023, published 2026)
